In US20260242391A1 (priority 2023, published 2026):

Tests used:
MDS-L cells [1] = assay: CFU assays with MDS-L cells; format: cell-based
MDS-L cells [2] = assay: Loss of CD71 in MDS-L cells; format: cell-based
MDS-L cells [3] = conditions: human
Description: MDS-L differentiation assay.
(§1) MDS-L were cultured in RPMI (17-105-CV, Corning) without phenol red and supplemented with 2 mM glutamine and 10% FBS. Cells first expanded in IL-3 until 70% confluence then pre-conditioned for 14 days with IL-3 (200-03, PeproTech), GCSF (300-23, PeproTech), and EPO (287-TC, R&D Systems) to promote erythroid and myeloid differentiation. A density of 10,000 cells per well were used in phenotypic assays. MDSL cells were spun and treatment media was replaced with media containing APC Anti-CD235a (GlyA) (551336, BD Biosciences) (1.25 μL per 50 L test) and incubated for 1 hour at 4° C. Cells were washed then counter stained with SYTOX-Green 1 M per 100 L prior to flow cytometry analysis. Dose response and pharmacological assays were analyzed using a ZE5 Cell Analyzer (BioRad) equipped with Everest software. Single, live, cells were analyzed for GlyA expression using FlowJo v10.7.2 software.

MDS-L cells [4] = system: MDS-L cells
MDS-L cells [5] = assay: cells; conditions: read-out: MDS-L GlyA induction EC50
Description: MDS-L differentiation assay.
as §1

MDS-L cells [6] = assay: Labile heme levels of MDS-L cells; format: cell-based; conditions: over relevant time periods (FIG. 4B)
HL-60 [7] = assay: HL-60 differentiation potency; format: cell-based; conditions: Homo sapiens
HL-60 [8] = system: HL-60

Maximal MDS-L GlyA fold induction (MDS-L cells [3])	EC50 (MDS-L cells [5])	EC50 (HL-60 [7])	IC50 (HL-60 [8])	SMILES	Terminal differentiation of MDS-L cells to CFU-Es while decreasing BFU-E, CFU-GM and CFU-GEMM type colonies (MDS-L cells [1])	Loss of CD71 (MDS-L cells [2])	Induction in apoptosis (MDS-L cells [4])	Levels of labile heme in MDS-L cells (MDS-L cells [6])
3.82 fold	580 nM	–	–	CCO[C@H]1O[C@@H]2O[C@@]3(C)CC[C@H]4[C@H](C)CC[C@@H]([C@H]1C)[C@@]24OO3 [Arteether, arteether]	efficaciously induced terminal differentiation	efficaciously promoted the loss of CD71	no significant induction	–
6.84 fold	150 nM	–	–	C[C@H]1[C@H](N2CCS(=O)(=O)CC2)O[C@@H]2O[C@@]3(C)CC[C@H]4[C@H](C)CC[C@@H]1[C@@]24OO3 [artemisone]	efficaciously induced terminal differentiation	efficaciously promoted the loss of CD71	no significant induction	efficiently reduced
–	–	203 nM	20 µM	C[C@H]1[C@H](OC2CCc3cc(C(=O)O)ccc32)O[C@@H]2O[C@@]3(C)CC[C@H]4[C@H](C)CC[C@@H]1[C@@]24OO3 (stereo partly drawn) [Compound 225, 1-(((3R,5aS,6R,8aS, 9R,10R,12R, 12aR)-3,6,9-trimethyldeca-hydro-12H-3,12-epoxy[1,2]dioxepino[4,3-i]isochromen-10-yl)oxy)-2,3-dihydro-1H-indene-5-carboxylic acid]	–	–	–	–
